Measurements reported in patent US5332731A, “Cephalosporin derivatives” (Meiji Seika Kaisha, Ltd., priority 1989, dated 1994).
≈ marks a conversion by molar mass, not a printed value.

Assays:
Experiment in all cases: antibacterial activity, MIC by standard serial dilution method
Format in all cases: cell-based
[1] = tested on: Escherichia coli W3630 RGN823; details: W3630RGN823
Excerpt: (§1) Antibacterial activity of Compounds Nos. 1, 3, 5, 7, 9, 11, 13, 15, 17, 19, 21, 23, 25, 27, 29, 31, 33, 35 and 37 indentified hereinbefore which are the particular examples of the new cephalosporin derivative of general formula (I) according to this invention and which are in the form of the free carboxylic acid was estimated by determining the minimum inhibitory concentrations (MIC., μg/ml) of these compounds against a variety of bacteria according to a standard serial dilution method.

[2] = tested on: Citrobacter freundii GN346/16
Excerpt: as §1

[3] = tested on: Escherichia coli NIHJ JC-2; details: NIHJJC2
Excerpt: as §1

Escherichia coli GN206 = tested on: Escherichia coli GN206
Excerpt: as §1

Marganella morganii 1510 = tested on: Marganella morganii 1510
Excerpt: as §1

[4] = tested on: Staphylococcus aureus 209P JC-1
Excerpt: as §1

[5] = tested on: Proteus vulgaris GN76/C-1
Excerpt: as §1

[6] = tested on: Staphylococcus epidermidis ATCC14990
Excerpt: as §1

[7] = tested on: Enterobacter cloacae GN7471
Excerpt: as §1

Proteus vulgaris GN76 = tested on: Proteus vulgaris GN76
Excerpt: as §1

[8] = tested on: Enterobacter cloacae G-0008; details: G0008
Excerpt: as §1

[9] = tested on: Citrobacter freundii GN346
Excerpt: as §1

[10] = tested on: Klebsiella pneumoniae GN69
Excerpt: as §1

[11] = tested on: Entrobacter faecalis W-73
Excerpt: as §1

Escherichia coli 255/S-1 = details: 255/S1
Excerpt: as §1

[12] = tested on: Pseudomonas aeruginosa GN10362
Excerpt: as §1

[13] = tested on: Serratia marcescens GN10857
Excerpt: as §1

Escherichia coli 255 = tested on: Escherichia coli 255
Excerpt: as §1

[14] = tested on: Enterobacter hirae ATCC8043
Excerpt: as §1

[15] = tested on: Serratia marcescens No. 1
Excerpt: as §1

[16] = tested on: Klebsiella pneumoniae PCI602
Excerpt: as §1

[17] = tested on: Marganella morganii 1510/S-1
Excerpt: as §1

Compound	MIC [1] [µg/mL]	MIC [2] [µg/mL]	MIC [3] [µg/mL]	MIC (Escherichia coli GN206) [µg/mL]	MIC (Marganella morganii 1510) [µg/mL]	MIC [4] [µg/mL]	MIC [5] [µg/mL]	MIC [6] [µg/mL]	MIC [7] [µg/mL]	MIC (Proteus vulgaris GN76) [µg/mL]	MIC [8] [µg/mL]	MIC [9] [µg/mL]	MIC [10] [µg/mL]	MIC [11] [µg/mL]	MIC (Escherichia coli 255/S-1) [µg/mL]	MIC [12] [µg/mL]	MIC [13] [µg/mL]	MIC (Escherichia coli 255) [µg/mL]	MIC [14] [µg/mL]	MIC [15] [µg/mL]	also measured
CO/N=C(\C(=O)NC1C(=O)N2C(C(=O)O)=C(SCC3CCCO3)CS[C@H]12)c1csc(N)n1 (stereo partly shown) [Compound No. 1, 7-[(Z)-2-(2-aminothiazol-4-yl)-2-methoxyiminoacetamido]-3-tetrahydrofurfurylthio-3-cephem-4-carboxylic acid]	1.56 (≈ 3.12 µM)	3.13 (≈ 6.27 µM)	1.56 (≈ 3.12 µM)	6.25 (≈ 12.5 µM)	50 (≈ 100 µM)	0.2 (≈ 0.4 µM)	3.13 (≈ 6.27 µM)	0.78 (≈ 1.56 µM)	50 (≈ 100 µM)	0.2 (≈ 0.4 µM)	1.56 (≈ 3.12 µM)	> 100	0.39 (≈ 0.781 µM)	100 (≈ 200 µM)	0.78 (≈ 1.56 µM)	> 100	100 (≈ 200 µM)	25 (≈ 50 µM)	12.5 (≈ 25 µM)	0.78 (≈ 1.56 µM)	MIC [16]: 0.78 µg/mL (≈ 1.56 µM); MIC [17]: 0.39 µg/mL (≈ 0.781 µM)
CO/N=C(\C(=O)NC1C(=O)N2C(C(=O)O)=C(SC3CCOC3)CS[C@H]12)c1csc(N)n1 (stereo partly shown) [Compound No. 3, 7-[(Z)-2-(2-aminothiazol-4-yl)-2-methoxyiminoacetamido]-3-(tetrahydrofuran-3-yl)thio-3-cephem-4-carboxylic acid]	0.78 (≈ 1.61 µM)	3.13 (≈ 6.45 µM)	0.39 (≈ 0.803 µM)	12.5 (≈ 25.7 µM)	25 (≈ 51.5 µM)	0.2 (≈ 0.412 µM)	1.56 (≈ 3.21 µM)	0.39 (≈ 0.803 µM)	50 (≈ 103 µM)	0.1 (≈ 0.206 µM)	12.5 (≈ 25.7 µM)	> 100	0.2 (≈ 0.412 µM)	> 100	0.39 (≈ 0.803 µM)	> 100	100 (≈ 206 µM)	50 (≈ 103 µM)	12.5 (≈ 25.7 µM)	12.5 (≈ 25.7 µM)	MIC [16]: 0.2 µg/mL (≈ 0.412 µM); MIC [17]: 0.2 µg/mL (≈ 0.412 µM)
CO/N=C(\C(=O)NC1C(=O)N2C(C(=O)O)=C(SCC3COC(C)(C)O3)CS[C@H]12)c1csc(N)n1 (stereo partly shown) [Compound No. 5, 7-[(Z)-2-(2-aminothiazol-4-yl)-2-methoxyiminoacetamido]-3-(2,2-dimethyl-1,3-dioxolan-4-yl)methylthio-3-cephem-4-carboxylic acid]	1.56 (≈ 2.95 µM)	6.25 (≈ 11.8 µM)	1.56 (≈ 2.95 µM)	12.5 (≈ 23.6 µM)	100 (≈ 189 µM)	1.56 (≈ 2.95 µM)	1.56 (≈ 2.95 µM)	1.56 (≈ 2.95 µM)	50 (≈ 94.4 µM)	0.39 (≈ 0.736 µM)	3.13 (≈ 5.91 µM)	> 100	0.78 (≈ 1.47 µM)	50 (≈ 94.4 µM)	3.13 (≈ 5.91 µM)	> 100	50 (≈ 94.4 µM)	100 (≈ 189 µM)	25 (≈ 47.2 µM)	1.56 (≈ 2.95 µM)	MIC [16]: 1.56 µg/mL (≈ 2.95 µM); MIC [17]: 0.78 µg/mL (≈ 1.47 µM)
CO/N=C(\C(=O)NC1C(=O)N2C(C(=O)O)=C(SC3CCOCC3)CS[C@H]12)c1csc(N)n1 (stereo partly shown) [Compound No. 7, 7-[(Z)-2-(2-aminothiazol-4-yl)-2-methoxyiminoacetamido]-3-(tetrahydropyran-4-yl)thio-3-cephem-4-carboxylic acid]	1.56 (≈ 3.12 µM)	6.25 (≈ 12.5 µM)	0.78 (≈ 1.56 µM)	12.5 (≈ 25 µM)	50 (≈ 100 µM)	0.78 (≈ 1.56 µM)	0.78 (≈ 1.56 µM)	0.39 (≈ 0.781 µM)	50 (≈ 100 µM)	0.2 (≈ 0.4 µM)	0.78 (≈ 1.56 µM)	> 100	0.78 (≈ 1.56 µM)	> 100	0.78 (≈ 1.56 µM)	> 100	100 (≈ 200 µM)	50 (≈ 100 µM)	6.25 (≈ 12.5 µM)	0.78 (≈ 1.56 µM)	MIC [16]: 0.39 µg/mL (≈ 0.781 µM); MIC [17]: 0.2 µg/mL (≈ 0.4 µM)
CO/N=C(\C(=O)NC1C(=O)N2C(C(=O)O)=C(SCC3CCOC(C)(C)O3)CS[C@H]12)c1csc(N)n1 (stereo partly shown) [Compound No. 9, 7-[(Z)-2-(2-aminothiazol-4-yl)-2-methoxyiminoacetamido]-3-(2,2-dimethyl-1,3-dioxan-4-yl)methylthio-3-cephem-4-carboxylic acid]	1.56 (≈ 2.87 µM)	6.25 (≈ 11.5 µM)	3.13 (≈ 5.76 µM)	12.5 (≈ 23 µM)	100 (≈ 184 µM)	1.56 (≈ 2.87 µM)	3.13 (≈ 5.76 µM)	1.56 (≈ 2.87 µM)	50 (≈ 92 µM)	0.78 (≈ 1.43 µM)	3.13 (≈ 5.76 µM)	> 100	1.56 (≈ 2.87 µM)	100 (≈ 184 µM)	6.25 (≈ 11.5 µM)	> 100	50 (≈ 92 µM)	100 (≈ 184 µM)	25 (≈ 46 µM)	3.13 (≈ 5.76 µM)	MIC [16]: 3.13 µg/mL (≈ 5.76 µM); MIC [17]: 1.56 µg/mL (≈ 2.87 µM)
Nc1nc(/C(=N/O)C(=O)NC2C(=O)N3C(C(=O)O)=C(SCC4CCCO4)CS[C@H]23)cs1 (stereo partly shown) [Compound No. 11, 7-[(Z)-2-(2-aminothiazol-4-yl)-2-hydroxyiminoacetamido]-3-tetrahydrofurfurylthio-3-cephem-4-carboxylic acid]	1.56 (≈ 3.21 µM)	6.25 (≈ 12.9 µM)	1.56 (≈ 3.21 µM)	12.5 (≈ 25.7 µM)	50 (≈ 103 µM)	0.2 (≈ 0.412 µM)	6.75 (≈ 13.9 µM)	0.2 (≈ 0.412 µM)	50 (≈ 103 µM)	0.78 (≈ 1.61 µM)	1.56 (≈ 3.21 µM)	> 100	0.78 (≈ 1.61 µM)	6.25 (≈ 12.9 µM)	0.78 (≈ 1.61 µM)	> 100	> 100	50 (≈ 103 µM)	6.25 (≈ 12.9 µM)	1.56 (≈ 3.21 µM)	MIC [16]: 0.78 µg/mL (≈ 1.61 µM); MIC [17]: 0.39 µg/mL (≈ 0.803 µM)
Nc1nc(/C(=N/O)C(=O)NC2C(=O)N3C(C(=O)O)=C(SC4CCOC4)CS[C@H]23)cs1 (stereo partly shown) [Compound No. 13, 7-[(Z)-2-(2-aminothiazol-4-yl)-2-hydroxyiminoacetamido]-3-(tetrahydrofuran-3-yl)thio-3-cephem-4-carboxylic acid]	1.56 (≈ 3.31 µM)	3.13 (≈ 6.64 µM)	0.39 (≈ 0.827 µM)	12.5 (≈ 26.5 µM)	12.5 (≈ 26.5 µM)	0.2 (≈ 0.424 µM)	6.25 (≈ 13.3 µM)	0.2 (≈ 0.424 µM)	100 (≈ 212 µM)	1.56 (≈ 3.31 µM)	6.25 (≈ 13.3 µM)	> 100	0.39 (≈ 0.827 µM)	12.5 (≈ 26.5 µM)	0.39 (≈ 0.827 µM)	> 100	> 100	50 (≈ 106 µM)	3.13 (≈ 6.64 µM)	3.13 (≈ 6.64 µM)	MIC [16]: 0.2 µg/mL (≈ 0.424 µM); MIC [17]: 0.2 µg/mL (≈ 0.424 µM)
Nc1nc(/C(=N/O)C(=O)NC2C(=O)N3C(C(=O)O)=C(SC4CCOCC4)CS[C@H]23)cs1 (stereo partly shown) [Compound No. 15, 7-[(Z)-2-(2-aminothiazol-4-yl) -2-hydroxyiminoacetamido]-3-(tetrahydropyran-4-yl)thio-3-cephem-4-carboxylic acid]	12.5 (≈ 25.7 µM)	6.25 (≈ 12.9 µM)	0.78 (≈ 1.61 µM)	12.5 (≈ 25.7 µM)	50 (≈ 103 µM)	0.2 (≈ 0.412 µM)	6.25 (≈ 12.9 µM)	0.2 (≈ 0.412 µM)	100 (≈ 206 µM)	1.56 (≈ 3.21 µM)	1.56 (≈ 3.21 µM)	> 100	0.78 (≈ 1.61 µM)	1.56 (≈ 3.21 µM)	0.39 (≈ 0.803 µM)	> 100	> 100	50 (≈ 103 µM)	6.25 (≈ 12.9 µM)	6.25 (≈ 12.9 µM)	MIC [16]: 0.39 µg/mL (≈ 0.803 µM); MIC [17]: 0.2 µg/mL (≈ 0.412 µM)
CC1(C)OCCC(CSC2=C(C(=O)O)N3C(=O)C(NC(=O)/C(=N\O)c4csc(N)n4)[C@H]3SC2)O1 (stereo partly shown) [Compound No. 17, 7 - [(Z)-2-(2-aminothiazol-4-yl) -2-hydroxyiminoacetamido]-3-(2,2-dimethyl-1,3-dioxan-4-yl)methylthio-3-cephem-4-carboxylic acid]	6.25 (≈ 11.8 µM)	12.5 (≈ 23.6 µM)	6.25 (≈ 11.8 µM)	25 (≈ 47.2 µM)	> 100	0.78 (≈ 1.47 µM)	25 (≈ 47.2 µM)	0.39 (≈ 0.736 µM)	> 100	3.13 (≈ 5.91 µM)	12.5 (≈ 23.6 µM)	> 100	3.13 (≈ 5.91 µM)	6.25 (≈ 11.8 µM)	6.25 (≈ 11.8 µM)	> 100	> 100	100 (≈ 189 µM)	25 (≈ 47.2 µM)	12.5 (≈ 23.6 µM)	MIC [16]: 6.25 µg/mL (≈ 11.8 µM); MIC [17]: 3.13 µg/mL (≈ 5.91 µM)
CO/N=C(\C(=O)NC1C(=O)N2C(C(=O)O)=C(SC3COCOC3)CSC12)c1csc(N)n1 (stereo not shown) [Compound No. 19]	0.78 (≈ 1.56 µM)	3.13 (≈ 6.24 µM)	0.39 (≈ 0.778 µM)	3.13 (≈ 6.24 µM)	12.5 (≈ 24.9 µM)	0.39 (≈ 0.778 µM)	1.56 (≈ 3.11 µM)	0.78 (≈ 1.56 µM)	50 (≈ 99.7 µM)	0.05 (≈ 0.0997 µM)	0.39 (≈ 0.778 µM)	> 100	0.2 (≈ 0.399 µM)	100 (≈ 199 µM)	0.39 (≈ 0.778 µM)	> 100	50 (≈ 99.7 µM)	25 (≈ 49.8 µM)	25 (≈ 49.8 µM)	0.78 (≈ 1.56 µM)	MIC [16]: < 0.025 µg/mL; MIC [17]: 0.1 µg/mL (≈ 0.199 µM)
